For data set [1] the following is noted: Crystal; DTA.
A short description of data set [2]: Molar enthalpy of transition or fusion. The settings on record: Crystal; DSC.

Numbers after ± are expanded uncertainties.

`COC(=O)/C=C/c1cc(OC)c(O)c(OC)c1` [3,5-dimethoxy-4-hydroxy cinnamic acid methyl ester]: the Normal melting temperature in data set [1] came out at 88.64 ± 0.5 °C. For the same molecule, the “Molar enthalpy of transition or fusion” value in data set [2] is 7.14 ± 0.203 kcal/mol.
`COC(=O)C=Cc1ccc(O)cc1` [2-propenoic acid, 3-(4-hydroxyphenyl)-, methyl ester]: the Normal melting temperature in data set [1] came out at 137.56 ± 0.5 °C. Moreover, in data set [2], the “Molar enthalpy of transition or fusion” value turned out to be 7.22 ± 0.206 kcal/mol.
For the molecule `COC(=O)C=Cc1ccc(O)c(OC)c1` [methyl 3-(4-hydroxy-3-methoxyphenyl)-2-propenoate], the Normal melting temperature in data set [1] was 62.56 ± 0.5 °C. Also, in data set [2], the “Molar enthalpy of transition or fusion” value worked out at 6.17 ± 0.179 kcal/mol.

Source of the values: the NIST ThermoML archive (doi:10.1021/je800596c).
